From article PMC5218480 (PLoS ONE, 2017)

System: MV-4-11 cells
Test: Gene expression microarray analysis (Affymetrix PrimeView) and GSEA
Assay type: cell-based, human
Parameters: RFU PODN (11730768_x_at) / Fold change /veh PODN (11730768_x_at) / RFU LINC00158 (11744669_a_at) / Fold change /veh LINC00158 (11744669_a_at) / RFU DUSP10 (11751237_a_at) / Fold change /veh DUSP10 (11751237_a_at) / RFU ID3 (11757404_x_at) / Fold change /veh ID3 (11757404_x_at) / RFU PLEKHG5 (11737974_s_at) / Fold change /veh PLEKHG5 (11737974_s_at) / RFU LRRC4B (11730491_at) / Fold change /veh LRRC4B (11730491_at) / RFU GIMAP4 (11747438_a_at) / Fold change /veh GIMAP4 (11747438_a_at) / RFU KRT8 (11758183_x_at) / Fold change /veh KRT8 (11758183_x_at) / RFU CNN1 (11734310_a_at) / Fold change /veh CNN1 (11734310_a_at) / RFU VPS37D (11726825_at) / Fold change /veh VPS37D (11726825_at) / RFU C10orf10 (11716522_x_at) / Fold change /veh C10orf10 (11716522_x_at) / RFU KIR2DL2 /// KIR2DL4 /// KIR2DL5A /// KIR2DL5B /// KIR2DS1 /// KIR2DS2 /// KIR2DS3 /// KIR2DS4 /// KIR3DL3 /// KIR3DL3 /// KIR3DS1 (11738374_at) / Fold change /veh KIR2DL2 /// KIR2DL4 /// KIR2DL5A /// KIR2DL5B /// KIR2DS1 /// KIR2DS2 /// KIR2DS3 /// KIR2DS4 /// KIR3DL3 /// KIR3DL3 /// KIR3DS1 (11738374_at) / RFU C1QL1 (11718748_at) / Fold change /veh C1QL1 (11718748_at) / RFU TMPRSS4 (11747572_a_at) / Fold change /veh TMPRSS4 (11747572_a_at) / RFU HAMP (11756126_x_at) / Fold change /veh HAMP (11756126_x_at) / RFU RNFT2 (11725882_a_at) / Fold change /veh RNFT2 (11725882_a_at) / RFU NR4A2 (11747474_a_at) / Fold change /veh NR4A2 (11747474_a_at) / RFU ABCC12 (11746883_a_at) / Fold change /veh ABCC12 (11746883_a_at) / RFU TMEM136 (11760407_x_at) / Fold change /veh TMEM136 (11760407_x_at) / RFU CLDN22 /// WWC2 (11732394_at) / Fold change /veh CLDN22 /// WWC2 (11732394_at) / RFU HLA-DPB1 (11760878_x_at) / Fold change /veh HLA-DPB1 (11760878_x_at) / RFU SPINT1 (11716480_a_at) / Fold change /veh SPINT1 (11716480_a_at) / RFU GAP43 (11754022_s_at) / Fold change /veh GAP43 (11754022_s_at) / RFU A4GNT (11735810_at) / Fold change /veh A4GNT (11735810_at) / RFU PRB3 (11715151_x_at) / Fold change /veh PRB3 (11715151_x_at) / RFU TUBB4B (11761932_at) / Fold change /veh TUBB4B (11761932_at) / RFU CAPN14 (11732068_a_at) / Fold change /veh CAPN14 (11732068_a_at) / RFU TMCC2 (11721928_a_at) / Fold change /veh TMCC2 (11721928_a_at) / RFU IRGQ (11745062_a_at) / Fold change /veh IRGQ (11745062_a_at) / RFU FAM174B (11720279_a_at) / Fold change /veh FAM174B (11720279_a_at) / RFU TMPRSS4 (11748680_a_at) / Fold change /veh TMPRSS4 (11748680_a_at) / RFU FAM212B (11763350_a_at) / Fold change /veh FAM212B (11763350_a_at) / RFU PLEKHG5 (11743358_a_at) / Fold change /veh PLEKHG5 (11743358_a_at) / RFU ZSCAN30 (11745921_a_at) / Fold change /veh ZSCAN30 (11745921_a_at) / RFU CMKLR1 (11741424_a_at) / Fold change /veh CMKLR1 (11741424_a_at) / RFU LOC101060620 /// MAPK8IP1 (11723275_at) / Fold change /veh LOC101060620 /// MAPK8IP1 (11723275_at) / RFU SPTSSB (11747773_x_at) / Fold change /veh SPTSSB (11747773_x_at) / RFU PRSS12 (11739890_at) / Fold change /veh PRSS12 (11739890_at) / RFU BIN1 (11741810_x_at) / Fold change /veh BIN1 (11741810_x_at) / RFU WNT11 (11732464_a_at) / Fold change /veh WNT11 (11732464_a_at) / RFU C10orf10 (11716521_a_at) / Fold change /veh C10orf10 (11716521_a_at) / RFU C5orf56 (11738089_at) / Fold change /veh C5orf56 (11738089_at) / RFU CYB561 (11721691_x_at) / Fold change /veh CYB561 (11721691_x_at) / RFU ANKRD19P (11752326_a_at) / Fold change /veh ANKRD19P (11752326_a_at) / RFU OR2T12 /// OR2T33 /// OR2T8 (11738714_s_at) / Fold change /veh OR2T12 /// OR2T33 /// OR2T8 (11738714_s_at) / RFU VCAN (11748164_a_at) / Fold change /veh VCAN (11748164_a_at) / RFU JSRP1 (11732532_at) / Fold change /veh JSRP1 (11732532_at) / RFU KRTAP10-11 (11738290_x_at) / Fold change /veh KRTAP10-11 (11738290_x_at) / RFU MYO3A (11730013_a_at) / Fold change /veh MYO3A (11730013_a_at) / RFU EBF3 (11725865_a_at) / Fold change /veh EBF3 (11725865_a_at) / RFU CAMK2N1 (11719241_x_at) / Fold change /veh CAMK2N1 (11719241_x_at) / RFU C5orf56 (11738088_a_at) / Fold change /veh C5orf56 (11738088_a_at) / RFU OLFML3 (11715873_a_at) / Fold change /veh OLFML3 (11715873_a_at) / RFU LOC100653217 /// NTM (11731650_a_at) / Fold change /veh LOC100653217 /// NTM (11731650_a_at) / RFU MAPK11 (11762145_a_at) / Fold change /veh MAPK11 (11762145_a_at) / RFU FIZ1 (11724087_x_at) / Fold change /veh FIZ1 (11724087_x_at) / RFU OASL (11726364_x_at) / Fold change /veh OASL (11726364_x_at) / RFU SOX15 (11748057_x_at) / Fold change /veh SOX15 (11748057_x_at) / RFU CD79A (11719716_a_at) / Fold change /veh CD79A (11719716_a_at) / RFU HIST1H1D (11736915_at) / Fold change /veh HIST1H1D (11736915_at) / RFU CASKIN2 (11723855_a_at) / Fold change /veh CASKIN2 (11723855_a_at) / RFU LOC730098 (11760151_x_at) / Fold change /veh LOC730098 (11760151_x_at) / RFU OR4N2 (11742367_at) / Fold change /veh OR4N2 (11742367_at) / RFU PRRT2 (11749266_a_at) / Fold change /veh PRRT2 (11749266_a_at) / RFU SNX32 (11753110_a_at) / Fold change /veh SNX32 (11753110_a_at) / RFU CDHR5 (11726645_a_at) / Fold change /veh CDHR5 (11726645_a_at) / RFU RCAN1 (11760418_a_at) / Fold change /veh RCAN1 (11760418_a_at) / RFU FAM167A (11723789_a_at) / Fold change /veh FAM167A (11723789_a_at) / RFU FAM26E (11764081_at) / Fold change /veh FAM26E (11764081_at) / RFU ISYNA1 (11749810_s_at) / Fold change /veh ISYNA1 (11749810_s_at) / RFU ACY1 (11761880_at) / Fold change /veh ACY1 (11761880_at) / RFU 11764098_at / Fold change /veh 11764098_at / RFU SAMD14 (11745864_x_at) / Fold change /veh SAMD14 (11745864_x_at) / RFU NPB (11741838_a_at) / Fold change /veh NPB (11741838_a_at) / RFU TMPRSS6 (11731388_a_at) / Fold change /veh TMPRSS6 (11731388_a_at) / RFU KRTAP10-2 (11738614_at) / Fold change /veh KRTAP10-2 (11738614_at) / RFU ARHGAP8 /// PRR5-ARHGAP8 (11727945_x_at) / Fold change /veh ARHGAP8 /// PRR5-ARHGAP8 (11727945_x_at) / RFU KRTAP5-7 /// NADSYN1 (11734609_at) / Fold change /veh KRTAP5-7 /// NADSYN1 (11734609_at) / RFU RASL12 (11751679_a_at) / Fold change /veh RASL12 (11751679_a_at) / RFU CDKN2B (11736163_a_at) / Fold change /veh CDKN2B (11736163_a_at) / RFU PRF1 (11729649_at) / Fold change /veh PRF1 (11729649_at) / RFU, ZNF638 /// ZNF638-IT1 / Fold change vs veh, ZNF638 /// ZNF638-IT1 / RFU, PANK3 / Fold change vs veh, PANK3 / RFU, SH3YL1 / Fold change vs veh, SH3YL1 / RFU, ZEB2 / Fold change vs veh, ZEB2 / RFU, NRIP1 / Fold change vs veh, NRIP1 / RFU, PTTG1IP / Fold change vs veh, PTTG1IP / RFU, CAPN2 / Fold change vs veh, CAPN2 / RFU, MED14 / Fold change vs veh, MED14 / RFU, SNORA58 / Fold change vs veh, SNORA58 / RFU, C1orf63 / Fold change vs veh, C1orf63 / RFU, LRRFIP1 / Fold change vs veh, LRRFIP1 / RFU, NDUFAF7 / Fold change vs veh, NDUFAF7 / RFU, SLC12A2 / Fold change vs veh, SLC12A2 / RFU, IBTK / Fold change vs veh, IBTK / RFU, ESF1 / Fold change vs veh, ESF1 / Fold change vs veh, TMEM50B / RFU, TAOK1 / Fold change vs veh, TAOK1 / RFU, ACBD3 / Fold change vs veh, ACBD3 / RFU, TMA16 / Fold change vs veh, TMA16 / RFU, RWDD3 / Fold change vs veh, RWDD3 / RFU, BCAT1 / Fold change vs veh, BCAT1 / RFU, EDEM3 / Fold change vs veh, EDEM3 / RFU, TMEM33 / Fold change vs veh, TMEM33 / RFU, WDR75 / Fold change vs veh, WDR75 / RFU, AHCTF1 / Fold change vs veh, AHCTF1 / RFU, TFRC / Fold change vs veh, TFRC / RFU, ZDHHC17 / Fold change vs veh, ZDHHC17 / RFU, NOM1 / Fold change vs veh, NOM1 / RFU, ARL8B / Fold change vs veh, ARL8B / RFU, ZBTB11 / Fold change vs veh, ZBTB11 / RFU, TAMM41 / Fold change vs veh, TAMM41 / RFU, KIAA1704 /// LOC100996395 / Fold change vs veh, KIAA1704 /// LOC100996395 / RFU, ING1 / Fold change vs veh, ING1 / RFU, TRMT61B / Fold change vs veh, TRMT61B / RFU, FUBP3 / Fold change vs veh, FUBP3 / RFU, TP53 / Fold change vs veh, TP53 / RFU, TNKS2 / Fold change vs veh, TNKS2 / RFU, ZFP14 / Fold change vs veh, ZFP14 / RFU, ACTR2 / Fold change vs veh, ACTR2 / RFU, PPP3R1 / Fold change vs veh, PPP3R1 / RFU, PIK3R1 / Fold change vs veh, PIK3R1 / RFU, HNRNPA1 / Fold change vs veh, HNRNPA1 / RFU, RNF170 / Fold change vs veh, RNF170 / RFU, ZNF28 / Fold change vs veh, ZNF28 / RFU, RNGTT / Fold change vs veh, RNGTT / RFU, OGT / Fold change vs veh, OGT / RFU, BRD1 / Fold change vs veh, BRD1 / RFU, MARS / Fold change vs veh, MARS / RFU, ZNF655 / Fold change vs veh, ZNF655 / RFU, FAHD1 / Fold change vs veh, FAHD1 / RFU, BDP1 / Fold change vs veh, BDP1 / RFU, LRRCC1 / Fold change vs veh, LRRCC1 / RFU, ARID1A / Fold change vs veh, ARID1A / RFU, ZNF146 / Fold change vs veh, ZNF146 / RFU, ZNF330 / Fold change vs veh, ZNF330 / RFU, GPN3 / Fold change vs veh, GPN3 / RFU, C9orf123 / Fold change vs veh, C9orf123 / RFU, N4BP2L2 / Fold change vs veh, N4BP2L2 / RFU, ARFIP1 / Fold change vs veh, ARFIP1 / RFU, FAM179B / Fold change vs veh, FAM179B / RFU, BCL10 / Fold change vs veh, BCL10 / RFU, UHRF1BP1L / Fold change vs veh, UHRF1BP1L / RFU, BET1 / Fold change vs veh, BET1 / RFU, CNOT2 / Fold change vs veh, CNOT2 / RFU, ZNF268 / Fold change vs veh, ZNF268 / Fold change vs veh, ZNF507 / RFU, DGCR2 / Fold change vs veh, DGCR2 / RFU, WDSUB1 / Fold change vs veh, WDSUB1 / Fold change vs veh, HSP90B1 /// MIR3652 / RFU, ADSS / Fold change vs veh, ADSS / RFU, GK / Fold change vs veh, GK / RFU, ZNF148 / Fold change vs veh, ZNF148 / RFU, TAF9 / Fold change vs veh, TAF9 / RFU, SLC1A5 / Fold change vs veh, SLC1A5 / RFU, SLMO2 / Fold change vs veh, SLMO2 / RFU, ABCC4 / Fold change vs veh, ABCC4 / RFU, LOC101060439 /// RAP1B / Fold change vs veh, LOC101060439 /// RAP1B / RFU, RFX7 / Fold change vs veh, RFX7 / RFU, GTPBP10 / Fold change vs veh, GTPBP10 / RFU, CNEP1R1 / Fold change vs veh, CNEP1R1 / RFU, BIVM-ERCC5 /// ERCC5 / Fold change vs veh, BIVM-ERCC5 /// ERCC5 / RFU, ILF3 / Fold change vs veh, ILF3 / RFU 11762660_at / Fold change /veh 11762660_at / RFU VCAN (11757783_s_at) / Fold change /veh VCAN (11757783_s_at) / RFU DDX43 (11728927_at) / Fold change /veh DDX43 (11728927_at) / RFU KRT8 (11758188_x_at) / Fold change /veh KRT8 (11758188_x_at) / RFU NKD1 (11759106_at) / Fold change /veh NKD1 (11759106_at) / RFU SRD5A1 (11742802_a_at) / Fold change /veh SRD5A1 (11742802_a_at) / RFU TPSAB1 /// TPSB2 (11721975_s_at) / Fold change /veh TPSAB1 /// TPSB2 (11721975_s_at) / RFU GSTM3 (11746129_a_at) / Fold change /veh GSTM3 (11746129_a_at) / RFU IL23R (11737362_x_at) / Fold change /veh IL23R (11737362_x_at) / RFU TMEM51 (11727254_a_at) / Fold change /veh TMEM51 (11727254_a_at) / RFU PIWIL2 (11732686_x_at) / Fold change /veh PIWIL2 (11732686_x_at) / RFU ORM1 (11744905_x_at) / Fold change /veh ORM1 (11744905_x_at) / RFU CCDC152 (11743942_at) / Fold change /veh CCDC152 (11743942_at) / RFU ECM1 (11717891_a_at) / Fold change /veh ECM1 (11717891_a_at) / RFU IL23R (11748794_a_at) / Fold change /veh IL23R (11748794_a_at) / RFU TNFAIP8L3 (11732012_x_at) / Fold change /veh TNFAIP8L3 (11732012_x_at) / RFU MBOAT4 (11741988_at) / Fold change /veh MBOAT4 (11741988_at) / RFU 11764193_at / Fold change /veh 11764193_at / RFU TMEM53 (11763286_at) / Fold change /veh TMEM53 (11763286_at) / RFU MAGEB2 (11727129_at) / Fold change /veh MAGEB2 (11727129_at) / RFU TMEM200A (11744735_a_at) / Fold change /veh TMEM200A (11744735_a_at) / RFU CCDC152 (11751479_a_at) / Fold change /veh CCDC152 (11751479_a_at) / RFU FAM211A (11726209_a_at) / Fold change /veh FAM211A (11726209_a_at) / RFU RGS16 (11746705_a_at) / Fold change /veh RGS16 (11746705_a_at) / RFU VCAN (11755009_s_at) / Fold change /veh VCAN (11755009_s_at) / RFU RHOB (11743442_s_at) / Fold change /veh RHOB (11743442_s_at) / RFU RGS16 (11720943_a_at) / Fold change /veh RGS16 (11720943_a_at) / RFU RGS16 (11720944_at) / Fold change /veh RGS16 (11720944_at) / RFU, VPS4B / Fold change vs veh, VPS4B / RFU, CREB1 / Fold change vs veh, CREB1 / RFU, DNAJC13 / Fold change vs veh, DNAJC13 / RFU, GNAQ / Fold change vs veh, GNAQ / RFU, CDK5R1 / Fold change vs veh, CDK5R1 / RFU, ZRANB3 / Fold change vs veh, ZRANB3 / RFU, CUL4A / Fold change vs veh, CUL4A / RFU, CCNY / Fold change vs veh, CCNY / RFU, UFL1 / Fold change vs veh, UFL1 / RFU, COG3 / Fold change vs veh, COG3 / RFU, DIAPH2 / Fold change vs veh, DIAPH2 / RFU, SKA2 / Fold change vs veh, SKA2 / RFU, AFF3 / Fold change vs veh, AFF3 / RFU, LMF1 / Fold change vs veh, LMF1 / RFU, IPO11 / Fold change vs veh, IPO11 / RFU, DFFB / Fold change vs veh, DFFB / RFU, FOXP1 / Fold change vs veh, FOXP1 / RFU, CARD8 / Fold change vs veh, CARD8 / RFU, STRN3 / Fold change vs veh, STRN3 / RFU, ADK / Fold change vs veh, ADK / RFU, RASSF2 / Fold change vs veh, RASSF2 / RFU, WIPF1 / Fold change vs veh, WIPF1 / RFU, LARP1B / Fold change vs veh, LARP1B / RFU, RASA1 / Fold change vs veh, RASA1 / RFU, RB1 / Fold change vs veh, RB1 / RFU, PPFIA1 / Fold change vs veh, PPFIA1 / RFU, MAT2A / Fold change vs veh, MAT2A / RFU, CCT5 / Fold change vs veh, CCT5 / RFU, WDR92 / Fold change vs veh, WDR92 / RFU, CUX1 / Fold change vs veh, CUX1 / RFU, TTC7A / Fold change vs veh, TTC7A / RFU, TMEM135 / Fold change vs veh, TMEM135 / RFU, DEPTOR / Fold change vs veh, DEPTOR / RFU, CPM / Fold change vs veh, CPM / RFU, DNAJB6 / Fold change vs veh, DNAJB6 / RFU, CACNA2D3 / Fold change vs veh, CACNA2D3 / RFU, DTX4 / Fold change vs veh, DTX4 / RFU, TFCP2 / Fold change vs veh, TFCP2 / RFU, GMCL1 /// GMCL1P1 / Fold change vs veh, GMCL1 /// GMCL1P1 / RFU, AEBP2 / Fold change vs veh, AEBP2 / RFU, SNHG1 /// SNORD22 /// SNORD25 /// SNORD26 /// SNORD27 /// SNORD28 /// SNORD29 /// SNORD31 / Fold change vs veh, SNHG1 /// SNORD22 /// SNORD25 /// SNORD26 /// SNORD27 /// SNORD28 /// SNORD29 /// SNORD31 / Fold change (Aza/veh), C12orf56 (ProbeSet 11735607_a_at) / Fold change (ACY-1035/veh), C12orf56 (ProbeSet 11735607_a_at) / Fold change (Aza/veh), FGFR1OP (ProbeSet 11751329_s_at) / Fold change (ACY-1035/veh), FGFR1OP (ProbeSet 11751329_s_at) / Fold change (Aza/veh), VPS36 (ProbeSet 11739960_a_at) / Fold change (ACY-1035/veh), VPS36 (ProbeSet 11739960_a_at) / RFU SYPL1 (11715823_x_at) / Fold change /veh SYPL1 (11715823_x_at) / RFU IGFBP7 (11715501_s_at) / Fold change /veh IGFBP7 (11715501_s_at) / RFU REEP3 (11722064_at) / Fold change /veh REEP3 (11722064_at) / RFU IGLL1 (11728026_x_at) / Fold change /veh IGLL1 (11728026_x_at): dose or concentration left out as unconfirmed
Details: MV-4-11 cells, 48 hours

Nc1ncn([C@@H]2O[C@H](CO)[C@@H](O)[C@H]2O)c(=O)n1 [azacitidine]
RFU TPSAB1 /// TPSB2 (11721975_s_at): 24.54 RFU
